Assay results taken from patent publication US20260285816A1, “Piperazinyl-Modified Quinazolinyl-Aryl Urea Derivative, And Preparation Method And Use Thereof” (Guangxi Normal University, priority 2025, published 2026).
Read-outs that look alike come from different tables or passages of the source.

How the values were obtained:
Format in all cases: cell-based, human
[1] = test system: A549 cells; experiment: CCK-8 anti-proliferative assay, A549; settings: co-incubated 48 h, read-out: Anti-proliferative activity (IC50 ± standard deviation) A549
Outline: (§1)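 CCK-8 viability assay: compounds at final 1, 2, 4, 6, 8, 12, 16, 24 and 30 μM (3 wells each) added once cultures of 5,000 cells/well reached 70% confluence at 37° C, 5% CO2.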

[2] = test system: Hep G2 cells; experiment: CCK-8 anti-proliferative assay, Hep G2; settings: co-incubated 48 h, read-out: Anti-proliferative activity (IC50 ± standard deviation) Hep G2
Outline: (§2)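 Compound was added at final concentrations of 1 to 30 μM, in triplicate, to cells at 70% confluence (5,000 per well seeded). After co-incubation, CCK-8 was added for 1–4 h depending on the cell line. Inhibition from OD450 relative to untreated cells gave IC50.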

[3] = test system: HeLa cells; experiment: CCK-8 anti-proliferative assay, HeLa; settings: co-incubated 48 h, read-out: Anti-proliferative activity (IC50 ± standard deviation) HeLa
Outline: as §1

[4] = test system: embryonic lung fibroblasts (WI-38); experiment: CCK-8 anti-proliferative assay, normal cells WI-38; settings: read-out: Anti-proliferative activity (IC50 ± standard deviation) WI-38
Outline: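 Cells seeded at 5,000/well were grown at 37° C. under 5% CO2 to 70% confluency, then exposed in triplicate to 1–30 μM compound (1, 2, 4, 6, 8, 12, 16, 24, 30 μM) for designated durations. CCK-8 was added for 1–4 h, OD read at 450 nm, and IC50 derived from inhibition versus control.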

[5] = test system: J82 cells; experiment: CCK-8 anti-proliferative assay, J82; settings: co-incubated 48 h, read-out: Anti-proliferative activity (IC50 ± standard deviation) J82
Outline: as §1

[6] = test system: MCF-7 cells; experiment: CCK-8 anti-proliferative assay, MCF-7; settings: co-incubated 48 h, read-out: Anti-proliferative activity (IC50 ± standard deviation) MCF-7
Outline: as §1

[7] = test system: immortalized ureteral epithelial cells (SV-HUC-1); experiment: CCK-8 anti-proliferative assay, normal cells SV-HUC-1; settings: normal cells, co-incubated 48 h, read-out: Anti-proliferative activity (IC50 ± standard deviation) SV-HUC-1
Outline: as §1

[8] = test system: PANC-1 cells; experiment: CCK-8 anti-proliferative assay, PANC-1; settings: co-incubated 48 h, read-out: Anti-proliferative activity (IC50 ± standard deviation) PANC-1
Outline: as §2

[9] = test system: SK-OV-3 cells; experiment: CCK-8 anti-proliferative assay, SK-OV-3; settings: co-incubated 48 h, read-out: Anti-proliferative activity (IC50 ± standard deviation) SK-OV-3
Outline: as §1

[10] = test system: 143B cells; experiment: CCK-8 anti-proliferative assay, 143B; settings: co-incubated 48 h, read-out: Anti-proliferative activity (IC50 ± standard deviation) 143B
Outline: as §2

[11] = test system: T24 cells; experiment: CCK-8 anti-proliferative assay, T24; settings: co-incubated 48 h, read-out: Anti-proliferative activity (IC50 ± standard deviation) T24
Outline: as §2

[12] = test system: 5637 cells; experiment: CCK-8 anti-proliferative assay, 5637; settings: co-incubated 48 h, read-out: Anti-proliferative activity (IC50 ± standard deviation) 5637
Outline: as §1

[13] = test system: UM-UC-3 cells; experiment: CCK-8 anti-proliferative assay, UM-UC-3; settings: co-incubated 48 h, read-out: Anti-proliferative activity (IC50 ± standard deviation) UM-UC-3
Outline: as §1

[14] = test system: BxPC-3 cells; experiment: CCK-8 anti-proliferative assay, BxPC-3; settings: co-incubated 48 h, read-out: Anti-proliferative activity (IC50 ± standard deviation) BxPC-3
Outline: as §2

[15] = test system: MG-63 cells; experiment: CCK-8 anti-proliferative assay, MG-63; settings: co-incubated 48 h, read-out: Anti-proliferative activity (IC50 ± standard deviation) MG-63
Outline: as §2

[16] = Homo sapiens, WI-38, Table 13, co-incubated 48 h
[17] = Homo sapiens, SV-HUC1, Table 13
[18] = Homo sapiens, SK-OV-3, Table 12

Row | SMILES | IC50 ([1]; Homo sapiens, A549, Table 13) [µM] | IC50 ([3]; Homo sapiens, HeLa, Table 12) [µM] | IC50 ([6]; Homo sapiens, MCF7, Table 12) [µM] | IC50 ([8]; Homo sapiens, PANC-1, Table 11) [µM] | IC50 [9, 18] [µM] | IC50 ([11]; Homo sapiens, T-24, Table 10) [µM] | IC50 ([14]; Homo sapiens, BXPC-3, Table 11) [µM] | IC50 ([2]; Homo sapiens, HepG2, Table 12) [µM] | IC50 [4, 16] [µM] | IC50 ([5]; Homo sapiens, J82, Table 10) [µM] | IC50 [7, 17] [µM] | IC50 ([10]; Homo sapiens, 143B, Table 11) [µM] | IC50 ([12]; Homo sapiens, Table 10) [µM] | IC50 ([13]; Homo sapiens, UMUC3, Table 10) [µM] | IC50 ([15]; Homo sapiens, MG-63, Table 11) [µM] | further results
1 | COc1cc2ncnc(NCc3cccc(NC(=O)Nc4ccccc4)c3)c2cc1OCCCCCCN1CCN(CCN2CCOCC2)CC1 [Compound 8-1a, N-(3-(((7-methoxy-6-((6-(4-(2-morpholinoethyl)piperazin-1-yl)hexyl)oxy)quinazolin-4-yl)a-mino)methyl)phenyl)-N′-phenylurea] |  |  |  |  |  |  |  |  |  |  |  |  |  |  |  | IC50 ([1]; Table 8): > 30 µM; IC50 ([2]; Table 8): > 30 µM; IC50 ([3]; Table 8): > 30 µM; IC50 ([4]; Table 9, co-incubated 48 h): 25.9 ± 2.74 µM; IC50 ([5]; Table 6): > 30 µM; IC50 ([6]; Table 8): > 30 µM; IC50 ([7]; Table 9): > 30 µM; IC50 ([8]; Table 7): > 30 µM; IC50 ([9]; Table 9): 28.1 ± 1.72 µM; IC50 ([10]; Table 7): 18.7 ± 1.63 µM; IC50 ([11]; Table 6): > 30 µM; IC50 ([12]; Table 6): 26.4 ± 1.63 µM; IC50 ([13]; Table 6): > 30 µM; IC50 ([14]; Table 7): 15.7 ± 0.78 µM; IC50 ([15]; Table 7): 27.3 ± 1.51 µM
2 | COc1cc2ncnc(NCc3cccc(NC(=O)Nc4ccccc4C)c3)c2cc1OCCCCCCN1CCC(CN2CCN(c3ccccn3)CC2)CC1 [Compound 8-2b, N-(3-(((7-methoxy-6-((6-(4-((4-(pyridin-2-yl)piperazin-1-yl)methyl)piperidin-1-yl)hexyl)oxy)quinazolin-4-yl)amino)methyl)phenyl)-N′-(2-methylphenyl)urea] | 5.47 ± 0.22 | 5.72 ± 0.41 | 7.25 ± 0.66 | 14.5 ± 0.94 | 6.21 ± 0.55 | 6.96 ± 0.85 | 5.92 ± 0.38 | 4.04 ± 0.28 | 9.02 ± 0.41 | 6.86 ± 0.52 | 8.74 ± 0.63 | 6.47 ± 0.34 | 4.79 ± 0.43 | 7.03 ± 0.37 | 6.44 ± 0.81 | 
3 | COc1cc2ncnc(NCc3cccc(NC(=O)Nc4ccccc4Cl)c3)c2cc1OCCCCCCN1CCN(CCN2CCOCC2)CC1 [Compound 8-1m, N-(3-(((7-methoxy-6-((6-(4-(2-morpholinoethyl)piperazin-1-yl)hexyl)oxy)quinazolin-4-yl)amino)methyl)phenyl)-N′-(2-chlorophenyl)urea] |  |  |  |  |  |  |  |  |  |  |  |  |  |  |  | IC50 ([1]; Homo sapiens, A549, Table 8): 15 ± 0.93 µM; IC50 ([2]; Homo sapiens, HepG2, Table 8): 7.83 ± 0.66 µM; IC50 ([3]; Homo sapiens, HeLa, Table 8): 13.8 ± 0.77 µM; IC50 ([4]; Homo sapiens, WI-38, Table 9, co-incubated 48 h): 14 ± 0.78 µM; IC50 ([5]; Homo sapiens, J82, Table 6): 7.21 ± 0.66 µM; IC50 ([6]; Homo sapiens, MCF7, Table 8): 14.8 ± 0.86 µM; IC50 ([7]; Homo sapiens, SV-HUC1, Table 9): 12 ± 0.57 µM; IC50 ([8]; Homo sapiens, PANC-1, Table 7): 23.2 ± 2.03 µM; IC50 ([9]; Homo sapiens, SK-OV-3, Table 9): 12.8 ± 0.42 µM; IC50 ([10]; Homo sapiens, 143B, Table 7): 5.62 ± 0.51 µM; IC50 ([11]; Homo sapiens, T-24, Table 6): 8.82 ± 0.49 µM; IC50 ([12]; Homo sapiens, Table 6): 6.06 ± 0.58 µM; IC50 ([13]; Homo sapiens, UMUC3, Table 6): 11.1 ± 0.74 µM; IC50 ([14]; Homo sapiens, BXPC-3, Table 7): 7.79 ± 0.44 µM; IC50 ([15]; Homo sapiens, MG-63, Table 7): 5.69 ± 0.65 µM

Second part, led by results:

Row | IC50 ([1]; Homo sapiens, A549, Table 13) [µM] | IC50 ([3]; Homo sapiens, HeLa, Table 12) [µM] | IC50 ([6]; Homo sapiens, MCF7, Table 12) [µM] | IC50 ([8]; Homo sapiens, PANC-1, Table 11) [µM] | IC50 [9, 18] [µM] | IC50 ([11]; Homo sapiens, T-24, Table 10) [µM] | IC50 ([14]; Homo sapiens, BXPC-3, Table 11) [µM] | SMILES | IC50 ([2]; Homo sapiens, HepG2, Table 12) [µM] | IC50 [4, 16] [µM] | IC50 ([5]; Homo sapiens, J82, Table 10) [µM] | IC50 [7, 17] [µM] | IC50 ([10]; Homo sapiens, 143B, Table 11) [µM] | IC50 ([12]; Homo sapiens, Table 10) [µM] | IC50 ([13]; Homo sapiens, UMUC3, Table 10) [µM] | IC50 ([15]; Homo sapiens, MG-63, Table 11) [µM] | further results
4 | 12.4 ± 1.43 | > 30 | 9.92 ± 0.86 | > 30 | 15.6 ± 0.92 | 14.1 ± 0.77 | 25.4 ± 1.57 | COc1cc2ncnc(NCc3cccc(NC(=O)Nc4ccc(F)c(C(F)(F)F)c4)c3)c2cc1OCCCCCCN1CCC(CN2CCN(c3ccccn3)CC2)CC1 [Compound 8-2u] | 14.3 ± 1.33 | 15.9 ± 0.85 | 12.9 ± 0.66 | 23.1 ± 0.97 | 13.6 ± 0.92 | 13.2 ± 0.78 | 11.9 ± 0.66 | 16 ± 1.07 | 
5 | 7.32 ± 0.85 | 7.99 ± 0.68 | 5.88 ± 0.57 | 10.4 ± 0.62 | 6.02 ± 0.39 | 7.73 ± 0.47 | 9.72 ± 0.95 | COc1cc2ncnc(NCc3cccc(NC(=O)Nc4c(Cl)cc(Cl)cc4Cl)c3)c2cc1OCCCCCCN1CCC(CN2CCN(c3ccccn3)CC2)CC1 [Compound 8-2s, N-(3-(((7-methoxy-6-((6-(4-((4-(pyridin-2-yl)piperazin-1-yl)methyl)piperidin-1-yl)hexyl)oxy)quinazolin-4-yl)amino)methyl)phenyl)-N′-(2,4,6-trichlorophenyl)urea] | 4.91 ± 0.55 | 11.5 ± 0.62 | 4.62 ± 0.33 | 8.36 ± 1.62 | 5.94 ± 0.43 | 4.87 ± 0.29 | 10 ± 0.73 | 11 ± 0.97 | 
6 | 13.3 ± 0.86 | 7.72 ± 0.34 | 6.44 ± 0.71 | 15.2 ± 0.67 | 5.62 ± 0.47 | 6.76 ± 0.38 | 13.2 ± 0.78 | COc1cc2ncnc(NCc3cccc(NC(=O)Nc4ccc(Cl)cc4)c3)c2cc1OCCCCCCN1CCC(CN2CCN(c3ccccn3)CC2)CC1 [Compound 8-2q, N-(3-(((7-methoxy-6-((6-(4-((4-(pyridin-2-yl)piperazin-1-yl)methyl)piperidin-1-yl)hexyl)oxy)quinazolin-4-yl)amino)methyl)phenyl)-N′-(4-chlorophenyl)urea] | 10.7 ± 0.98 | 7.36 ± 0.23 | 6.69 ± 0.53 | 9.49 ± 0.73 | 7.08 ± 0.85 | 4.32 ± 0.33 | 7.19 ± 0.47 | 8.61 ± 0.53 | 
